The source of these data is patent US20190185518A9, “WARHEAD-CONTAINING PEPTIDOMIMETIC MACROCYCLES AS MODULATORS OF BFL-1” (AILERON Therapeutics, Inc., priority 2017, published 2019).

Positions of bridges follow the written chain, without caps; N, C: chain ends. Non-standard residues stand in square brackets, D forms with d. Residues, ends and D or L forms follow the SMILES beside them. ξ: configuration not given here. hCha = N[C@@H](CCC1CCCCC1)C(=O)O; hPhe = N[C@@H](CCc1ccccc1)C(=O)O; R8 = C=CCCCCCC[C@@](C)(N)C(=O)O; ξαMeD = CC(N)(CC(=O)O)C(=O)O; S5 = C=CCCC[C@](C)(N)C(=O)O; Aib = CC(C)(N)C(=O)O Where only a bound is given, the exact number is not on record here.

Test [1] has as its system Mcl-1, Bcl-xL, Bcl-2. The test can be described thus: BCL-2 family selectivity profile. It is filed as binding. The source says:
The binding spectrum of stapled BIM BH3 peptides were tuned for BCL-2 family selectivity. […] ABT-199 is venetoclax, and † represents values reported in the literature.

Test [2] addresses Mcl-1 (Homo sapiens, UniProt Q07820). In words: Ki determination for Mcl-1 (BCL-2 family binding spectrum). Particulars: read-out: Ki MCL-1. In outline: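 Binding to Mcl-1 was measured as displacement of a fluorescein-labelled macrocyclic peptidomimetic, read by fluorescence polarization. Constants were fitted by nonlinear regression.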
In test [3] the target is Bcl-xL (Homo sapiens, UniProt Q07817). The test can be described thus: Ki determination for Bcl-xL (BCL-2 family binding spectrum). Particulars: read-out: Ki BCL-XL. In outline:
(§1)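 Competitive fluorescence polarization: compounds (1 nM–1 mM) with 25 nM fluoresceinated peptidomimetic macrocycle and 50 nM protein in 140 mM NaCl, 50 mM Tris-HCl pH 7.4, 30 min at room temperature. Constants from nonlinear regression.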

In test [4] the target is Bcl-2 (Homo sapiens, UniProt P10415). In words: Ki determination for Bcl-2 (BCL-2 family binding spectrum). The settings on record: read-out: Ki BCL-2. Summed up:
as §1

Chain of Bcl-2 (P10415 whole entry, species assumed): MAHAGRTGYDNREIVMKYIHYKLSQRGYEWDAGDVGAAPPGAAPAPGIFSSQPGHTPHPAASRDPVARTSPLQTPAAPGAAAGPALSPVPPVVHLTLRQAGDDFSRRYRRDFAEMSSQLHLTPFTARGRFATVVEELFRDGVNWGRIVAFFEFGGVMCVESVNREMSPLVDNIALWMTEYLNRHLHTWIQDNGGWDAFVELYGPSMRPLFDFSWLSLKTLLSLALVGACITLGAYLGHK
Chain of Bcl-xL (Q07817 whole entry, species assumed): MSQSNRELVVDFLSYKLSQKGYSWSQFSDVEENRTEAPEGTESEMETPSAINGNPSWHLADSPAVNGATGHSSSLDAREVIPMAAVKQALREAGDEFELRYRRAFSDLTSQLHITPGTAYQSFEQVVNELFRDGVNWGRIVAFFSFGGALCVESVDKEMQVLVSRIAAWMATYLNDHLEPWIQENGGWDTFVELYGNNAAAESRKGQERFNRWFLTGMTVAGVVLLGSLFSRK
Chain of Mcl-1 (Q07820 whole entry, species assumed): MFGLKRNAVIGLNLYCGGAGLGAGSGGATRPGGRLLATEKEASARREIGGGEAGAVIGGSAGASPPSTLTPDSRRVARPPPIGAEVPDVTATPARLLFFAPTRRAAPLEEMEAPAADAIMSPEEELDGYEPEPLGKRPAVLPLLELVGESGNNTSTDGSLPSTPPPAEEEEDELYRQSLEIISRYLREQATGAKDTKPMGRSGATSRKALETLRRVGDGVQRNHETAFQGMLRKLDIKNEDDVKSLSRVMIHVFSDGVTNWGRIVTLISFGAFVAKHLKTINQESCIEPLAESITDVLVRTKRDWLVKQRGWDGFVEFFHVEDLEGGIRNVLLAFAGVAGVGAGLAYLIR

In the case of `CN(C)CC[C@H](CSc1ccccc1)Nc1ccc(S(=O)(=O)NC(=O)c2ccc(N3CCN(Cc4ccccc4-c4ccc(Cl)cc4)CC3)cc2)cc1[N+](=O)[O-]` [ABT-737, reference compound], in test [1] (TABLE 8), the Profile result is listed as “Bcl-xL/Bcl-2 selective”.

As to `CC[C@H](C)[C@H](NC(C)=O)C(=O)N[C@@H](Cc1c[nH]c2ccccc12)C(=O)N[C@H](C(=O)N[C@@H](C)C(=O)N[C@@H](CCC(N)=O)C(=O)N[C@@H](C)C(=O)N[C@@H](CC(C)C)C(=O)N[C@@H](CCCNC(=N)N)C(=O)N[C@]1(C)CCCCCCC=CCCC[C@@](C)(C(=O)N[C@@H](Cc2ccc(O)cc2)C(=O)N[C@@H](Cc2ccc(O)cc2)C(=O)N[C@@H](C)C(N)=O)NC(=O)[C@H](CC(N)=O)NC(=O)[C@H](Cc2ccccc2)NC(=O)[C@H](C)NC(=O)[C@H](CC(N)=O)NC(=O)CNC(=O)[C@H]([C@@H](C)CC)NC1=O)[C@@H](C)CC` [compound 12] (Ac-IWIAQALR[R8]IGNAFN[S5]YYA-NH2; staple 9-16), the Profile entry in test [1] (TABLE 6) is on record as “negative control”.

For the compound `CC[C@H](C)[C@H](NC(C)=O)C(=O)N[C@@H](Cc1c[nH]c2ccccc12)C(=O)N[C@H](C(=O)N[C@@H](C)C(=O)N[C@@H](CCC(N)=O)C(=O)N[C@@H](C)C(=O)N[C@@H](C)C(=O)N[C@@H](CCCNC(=N)N)C(=O)N[C@]1(C)CCCCCCC=CCCC[C@@](C)(C(=O)N[C@@H](Cc2ccc(O)cc2)C(=O)N[C@@H](Cc2ccc(O)cc2)C(=O)N[C@@H](C)C(N)=O)NC(=O)[C@H](CC(N)=O)NC(=O)[C@H](Cc2ccccc2)NC(=O)[C@H](C)NC(=O)[C@H](CC(=O)O)NC(=O)CNC(=O)[C@H]([C@@H](C)CC)NC1=O)[C@@H](C)CC` [compound 13] (Ac-IWIAQAAR[R8]IGDAFN[S5]YYA-NH2; staple 9-16), in test [1] (TABLE 6), the Profile result is listed as “negative control”.

With `CC[C@H](C)[C@H](NC(C)=O)C(=O)N[C@@H](Cc1c[nH]c2ccccc12)C(=O)N[C@H](C(=O)N[C@@H](C)C(=O)N[C@@H](CCC(N)=O)C(=O)N[C@@H](C)C(=O)N[C@@H](CC(C)C)C(=O)N[C@@H](CCCNC(=N)N)C(=O)N[C@]1(C)CCCCCCC=CCCC[C@@](C)(C(=O)N[C@@H](Cc2ccc(O)cc2)C(=O)N[C@@H](Cc2ccc(O)cc2)C(=O)N[C@@H](C)C(N)=O)NC(=O)[C@H](CC(N)=O)NC(=O)[C@H](Cc2ccccc2)NC(=O)[C@H](CCC(N)=O)NC(=O)[C@H](CC(=O)O)NC(=O)CNC(=O)[C@H](C)NC1=O)[C@@H](C)CC` [compound 1668] (Ac-IWIAQALR[R8]AGDQFN[S5]YYA-NH2; staple 9-16), the Ki in test [2] was 122 nM; in test [3] it was 1.9 nM; in test [4], 4.8 nM.

For `CC[C@H](C)[C@H](NC(C)=O)C(=O)N[C@@H](Cc1c[nH]c2ccccc12)C(=O)N[C@H](C(=O)N[C@@H](C)C(=O)N[C@@H](CCC(N)=O)C(=O)N[C@@H](C)C(=O)N[C@@H](CC(C)C)C(=O)N[C@@H](C)C(=O)N[C@]1(C)CCCCCCC=CCCC[C@@](C)(C(=O)N[C@@H](Cc2ccc(O)cc2)C(=O)N[C@@H](Cc2ccc(O)cc2)C(=O)N[C@@H](C)C(N)=O)NC(=O)[C@H](CC(N)=O)NC(=O)[C@H](Cc2ccccc2)NC(=O)[C@H](C)NC(=O)[C@H](CC(=O)O)NC(=O)CNC(=O)[C@H]([C@@H](C)CC)NC1=O)[C@@H](C)CC` [compound 1673] (Ac-IWIAQALA[R8]IGDAFN[S5]YYA-NH2; staple 9-16), the Ki in test [2] was 73.8 nM; in test [3], 386 nM; in test [4] it was greater than 1000 nM.

As to `CC[C@H](C)[C@H](NC(C)=O)C(=O)N[C@@H](Cc1c[nH]c2ccccc12)C(=O)N[C@H](C(=O)N[C@@H](C)C(=O)N[C@@H](CCC(N)=O)C(=O)N[C@@H](C)C(=O)N[C@@H](CC(C)C)C(=O)N[C@@H](CCCNC(=N)N)C(=O)N[C@]1(C)CCCCCCC=CCCC[C@@](C)(C(=O)N[C@@H](Cc2ccc(O)cc2)C(=O)N[C@@H](Cc2ccc(O)cc2)C(=O)N[C@@H](C)C(N)=O)NC(=O)[C@H](CC(N)=O)NC(=O)[C@H](Cc2ccccc2)NC(=O)[C@H](C)NC(=O)[C@H](CC(N)=O)NC(=O)CNC(=O)[C@H]([C@@H](C)CC)NC1=O)[C@@H](C)CC` [compound 1674] (Ac-IWIAQALR[R8]IGNAFN[S5]YYA-NH2; staple 9-16), the Ki in test [2] was 195 nM; in test [3] it was 416 nM; in test [4], 405 nM.

For `CC[C@H](C)[C@H](NC(C)=O)C(=O)N[C@@H](Cc1c[nH]c2ccccc12)C(=O)N[C@H](C(=O)N[C@@H](C)C(=O)N[C@@H](CCC(N)=O)C(=O)N[C@@H](C)C(=O)N[C@@H](C)C(=O)N[C@@H](CCCNC(=N)N)C(=O)N[C@]1(C)CCCCCCC=CCCC[C@@](C)(C(=O)N[C@@H](Cc2ccc(O)cc2)C(=O)N[C@@H](Cc2ccc(O)cc2)C(=O)N[C@@H](C)C(N)=O)NC(=O)[C@H](CC(N)=O)NC(=O)[C@H](Cc2ccccc2)NC(=O)[C@H](C)NC(=O)[C@H](CC(=O)O)NC(=O)CNC(=O)[C@H]([C@@H](C)CC)NC1=O)[C@@H](C)CC` [compound 1675] (Ac-IWIAQAAR[R8]IGDAFN[S5]YYA-NH2; staple 9-16), the Ki in test [2], in test [3] and in test [4] was greater than 1000 nM in each case.

With `CC[C@H](C)[C@H](NC(C)=O)C(=O)N[C@@H](Cc1c[nH]c2ccccc12)C(=O)N[C@H](C(=O)N[C@@H](C)C(=O)N[C@@H](CCC(N)=O)C(=O)N[C@@H](C)C(=O)N[C@@H](CCC1CCCCC1)C(=O)N[C@@H](CCCNC(=N)N)C(=O)N[C@]1(C)CCCCCCC=CCCC[C@@](C)(C(=O)N[C@@H](Cc2ccc(O)cc2)C(=O)N[C@@H](Cc2ccc(O)cc2)C(=O)N[C@@H](C)C(N)=O)NC(=O)[C@H](CC(N)=O)NC(=O)[C@H](Cc2ccccc2)NC(=O)[C@H](C)NC(=O)[C@H](CC(=O)O)NC(=O)CNC(=O)[C@H]([C@@H](C)CC)NC1=O)[C@@H](C)CC` [compound 1690] (Ac-IWIAQA[hCha]R[R8]IGDAFN[S5]YYA-NH2; staple 9-16), the Ki in test [2] was 3.8 nM; in test [3], greater than 1000 nM; in test [4], greater than 1000 nM.

For `CC[C@H](C)[C@H](NC(C)=O)C(=O)N[C@@H](Cc1c[nH]c2ccccc12)C(=O)N[C@H](C(=O)N[C@@H](C)C(=O)N[C@@H](CCC(N)=O)C(=O)N[C@@H](C)C(=O)N[C@@H](CCc1ccccc1)C(=O)N[C@@H](CCCNC(=N)N)C(=O)N[C@]1(C)CCCCCCC=CCCC[C@@](C)(C(=O)N[C@@H](Cc2ccc(O)cc2)C(=O)N[C@@H](Cc2ccc(O)cc2)C(=O)N[C@@H](C)C(N)=O)NC(=O)[C@H](CC(N)=O)NC(=O)[C@H](Cc2ccccc2)NC(=O)[C@H](C)NC(=O)[C@H](CC(=O)O)NC(=O)CNC(=O)[C@H]([C@@H](C)CC)NC1=O)[C@@H](C)CC` [compound 1692] (Ac-IWIAQA[hPhe]R[R8]IGDAFN[S5]YYA-NH2; staple 9-16), the results for the Ki in test [2], in test [3] and in test [4] were 7.5 nM, greater than 1000 nM and greater than 1000 nM, respectively.

As for `CC[C@H](C)[C@H](NC(C)=O)C(=O)N[C@@H](Cc1c[nH]c2ccccc12)C(=O)N[C@H](C(=O)NC(C)(C)C(=O)N[C@@H](CCC(N)=O)C(=O)N[C@@H](C)C(=O)N[C@@H](CC(C)C)C(=O)N[C@@H](CCCNC(=N)N)C(=O)N[C@]1(C)CCCCCCC=CCCC[C@@](C)(C(=O)N[C@@H](Cc2ccc(O)cc2)C(=O)N[C@@H](Cc2ccc(O)cc2)C(=O)N[C@@H](C)C(N)=O)NC(=O)[C@H](CC(N)=O)NC(=O)[C@H](Cc2ccccc2)NC(=O)[C@H](C)NC(=O)C(C)(CC(=O)O)NC(=O)CNC(=O)[C@H]([C@@H](C)CC)NC1=O)[C@@H](C)CC` (stereo partly drawn) [compound 1707] (Ac-IWI[Aib]QALR[R8]IG[ξαMeD]AFN[S5]YYA-NH2; staple 9-16), the Ki in test [2], in test [3] and in test [4] was greater than 1000 nM each time.

For `CC[C@H](C)[C@H](NC(C)=O)C(=O)N[C@@H](Cc1c[nH]c2ccccc12)C(=O)N[C@H](C(=O)N[C@@H](C)C(=O)N[C@@H](CCC(N)=O)C(=O)N[C@@H](C)C(=O)N[C@@H](CC(C)C)C(=O)N[C@@H](CCCNC(=N)N)C(=O)N[C@]1(C)CCCCCCC=CCCC[C@@](C)(C(=O)N[C@@H](Cc2ccc(O)cc2)C(=O)N[C@@H](Cc2c[nH]c3ccccc23)C(=O)N[C@@H](C)C(N)=O)NC(=O)[C@H](CC(N)=O)NC(=O)[C@H](Cc2ccccc2)NC(=O)[C@H](C)NC(=O)[C@H](CC(=O)O)NC(=O)CNC(=O)[C@H]([C@@H](C)CC)NC1=O)[C@@H](C)CC` [compound 1758] (Ac-IWIAQALR[R8]IGDAFN[S5]YWA-NH2; staple 9-16), the Ki in test [2] was determined as 3.9 nM; in test [3], 15.4 nM; in test [4], 23.5 nM.

As to `CC[C@H](C)[C@H](NC(C)=O)C(=O)N[C@@H](Cc1c[nH]c2ccccc12)C(=O)N[C@H](C(=O)N[C@@H](C)C(=O)N[C@@H](CCC(N)=O)C(=O)N[C@@H](C)C(=O)N[C@@H](CC(C)C)C(=O)N[C@@H](CCCNC(N)=O)C(=O)N[C@]1(C)CCCCCCC=CCCC[C@@](C)(C(=O)N[C@@H](Cc2ccc(O)cc2)C(=O)N[C@@H](Cc2ccc(O)cc2)C(=O)N[C@@H](C)C(N)=O)NC(=O)[C@H](CC(N)=O)NC(=O)[C@H](Cc2ccccc2)NC(=O)[C@H](C)NC(=O)[C@H](CC(N)=O)NC(=O)CNC(=O)[C@H]([C@@H](C)CC)NC1=O)[C@@H](C)CC` [compound 1772], the Ki in test [2], in test [3] and in test [4] was greater than 1000 nM each time.
